This is an account of results in US6333313A, “Clinical use of oxytocin alone or in combination to treat bone disorders” (Board of Regents, The University of Texas System, priority 1999, dated 2001).

For data set [1], the system named is bone formation. Particulars: in vivo, high dose; cited from earlier work.
The next data set deals with bone; uterus. To be noted: rats; compared with estradiol; cited from earlier work.
For data set [2], the target named is T1, OTR (Homo sapiens, UniProt P30559).
T1 sequence (P30559 1-389): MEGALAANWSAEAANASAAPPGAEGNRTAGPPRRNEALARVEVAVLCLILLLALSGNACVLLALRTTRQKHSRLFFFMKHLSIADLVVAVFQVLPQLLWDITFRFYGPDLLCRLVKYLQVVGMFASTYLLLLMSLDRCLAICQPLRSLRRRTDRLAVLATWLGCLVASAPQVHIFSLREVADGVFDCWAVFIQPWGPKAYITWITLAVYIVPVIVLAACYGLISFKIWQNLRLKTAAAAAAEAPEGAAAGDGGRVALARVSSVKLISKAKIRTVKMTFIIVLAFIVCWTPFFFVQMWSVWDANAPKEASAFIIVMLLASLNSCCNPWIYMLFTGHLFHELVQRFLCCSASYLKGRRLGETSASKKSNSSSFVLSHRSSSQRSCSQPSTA
Briefly: Intracellular calcium levels, differentiated osteoblastic cells. To be noted: 10 nM OT. The arrangement: Undifferentiated or differentiated human trabecular bone cells with osteogenic capacity in primary culture express oxytocin receptors (OTRs); endogenous in cells; host or cells: primary human osteoblastic cells from rib trabecular bone explants (undifferentiated, or differentiated in mineralizing medium). The format is cell-based. The method, then:
(§1) FIG. 3A, FIG. 3B and FIG. 3C Intracellular calcium transients after 10 nM oxytocin treatment. (FIG. 3A.) Undifferentiated osteoblastic cells; (FIG. 3B.) differentiated osteoblastic cells; and (FIG. 3C.) Saos-2 cells. Cells were incubated at 37C and treated in the following manner; 100 nM OTA for 1 min, […], wash cells 3 times to remove bound antagonist, 10 min recovery, and then 10 nM OT treatment.
(§2) Cell Culture Conditions: Human osteosarcoma cells (Saos-2) cells were obtained from the ATCC (Rockville, Md.). Human osteoblasts (Cheng et al., 1994; Civitelli et al., 1993) were prepared from explants of cultured rib trabecular. These cells were grown in mineralizing media consisting of DMEM supplemented with 10% fetal bovine serum (FBS), 2% penicillin/streptomycin, dexamethasone (100 nM), ascorbate (50 μg/ml, and β3-glycerophosphate (10 μg/ml) in a humidified tissue culture incubator at 37C under an atmosphere of 5% CO2 and 95% air. These conditions accelerate the osteoblastic modulation of undifferentiated human trabecular bone cells and the production of osteogenic mineralizeable collagen matrix (Cheng et al., Civitelli et al., 1993). To retain undifferentiated osteoblastic phenotype, cells were cultured in the absence of dexamethasone, ascorbate, and β-glycerophosphate. […]
A general note: Calcium assays in cells follow changes in intracellular calcium, usually with a dye or a luminescent sensor.

In data set [3] the target is T1, OTR. Put plainly: Intracellular calcium levels, undifferentiated osteoblastic cells. The format is cell-based. The arrangement: Undifferentiated or differentiated human trabecular bone cells with osteogenic capacity in primary culture express oxytocin receptors (OTRs); endogenous in cells; host or cells: primary human osteoblastic cells from rib trabecular bone explants (undifferentiated, or differentiated in mineralizing medium). Particulars: 10 nM OT. Here is the method:
as §1, §2

The target in data set [4] is T1, OTR. Put plainly: Intracellular calcium levels, Saos-2 cells. The format is cell-based. Particulars: 10 nM OT. Here is the method: as §1, §2
Data set [5] has as its system Undifferentiated and differentiated osteoblastic cells. Briefly: PGE2 levels in media of OT-stimulated cells (EIA). Particulars: 100 nM OT, over nontreated controls. The format is cell-based, human. Here is the method: FIG. 4A and FIG. 4B PGE2 levels in media of cells stimulated with 100 nM OT. (FIG. 4A.) Undifferentiated osteoblastic cells and (FIG. 4B.) differentiated osteoblastic cells. Each point is the mean +/- SE of triplicates. * indicates P<0.05 compared to matched basal control.
Prostaglandin E2 (PGE2) levels. PGE2 levels in media were measured using a PGE2 enzyme immunoassay (EIA) system from Amersham Life Sciences (Arlington Heights, Ill.) as previously described (Copland, et al., 1999). The sensitivity of the assay was 2.5 pg/ml with an intraassay coefficient of variation of 6.3% and the interassay coefficient of variation of 6.9%.
Undifferentiated and differentiated osteoblastic cells were tested to determine whether OT could stimulate PGE2 synthesis. Undifferentiated osteoblastic cells that were allowed to come to confluence and maintained for 2 weeks in either 10% FBS/DMEM or in mineralizing medium (differentiated osteoblast), synthesized and released PGE2 into the media in response to 100 nM OT (FIG. 4A and FIG. 4B, respectively).

The target in data set [6] is T1, OTR. Briefly: Whole cell OTR ligand binding, Scatchard analysis, undifferentiated osteoblastic cells. To be noted: +/- SE. The arrangement: Undifferentiated or differentiated human trabecular bone cells with osteogenic capacity in primary culture express oxytocin receptors (OTRs); endogenous in cells; host or cells: primary human osteoblastic cells from rib trabecular bone explants (undifferentiated, or differentiated in mineralizing medium). Here is the method: (§3) Cell Culture Conditions: Human osteosarcoma cells (Saos-2) cells were obtained from the ATCC (Rockville, Md.). Human osteoblasts (Cheng et al., 1994; Civitelli et al., 1993) were prepared from explants of cultured rib trabecular. These cells were grown in mineralizing media consisting of DMEM supplemented with 10% fetal bovine serum (FBS), 2% penicillin/streptomycin, dexamethasone (100 nM), ascorbate (50 μg/ml, and β3-glycerophosphate (10 μg/ml) in a humidified tissue culture incubator at 37C under an atmosphere of 5% CO2 and 95% air. These conditions accelerate the osteoblastic modulation of undifferentiated human trabecular bone cells and the production of osteogenic mineralizeable collagen matrix (Cheng et al., Civitelli et al., 1993). To retain undifferentiated osteoblastic phenotype, cells were cultured in the absence of dexamethasone, ascorbate, and β-glycerophosphate. Osteoblast phenotype was verified by alkaline phosphatase activity and mineralization of the extracellular matrix using von Kossa staining. The cells were used on the first passage following initial plating.
(§4) Determination of OTR ligand binding: OTA was monoiodinated as previously described (Hinko and Soloff, 1992). […] The concentration of cellular DNA was determined in parallel, using the Hoechst dye H 33258 and a Hoefer DyNA Quant fluorometer according to the manufacturer's instructions.

The target in data set [7] is T1, OTR. Briefly: Whole cell OTR ligand binding, Scatchard analysis, Saos-2 cells. The arrangement: Undifferentiated or differentiated human trabecular bone cells with osteogenic capacity in primary culture express oxytocin receptors (OTRs); endogenous in cells; host or cells: primary human osteoblastic cells from rib trabecular bone explants (undifferentiated, or differentiated in mineralizing medium). Here is the method: as §3, §4

The target in data set [8] is T1, OTR. Put plainly: Whole cell OTR ligand binding, Scatchard analysis, differentiated osteoblastic cells. More on the design: Undifferentiated or differentiated human trabecular bone cells with osteogenic capacity in primary culture express oxytocin receptors (OTRs); endogenous in cells; host or cells: primary human osteoblastic cells from rib trabecular bone explants (undifferentiated, or differentiated in mineralizing medium). The method, then:
as §3, §4

Data set [9] has as its system cortical bone. Particulars: injections with mild exercise; old female rats; cited from earlier work.
Data set [10] concerns bone formation. Particulars: systemic administration; cited from earlier work.
The test system of a further data set is rat osteogenic cells. To be noted: in vitro; cited from earlier work.
For data set [11], the system named is cortical bone. To be noted: ovariectomized rats; cited from earlier work.
For data set [12], the system named is bone formation. Particulars: in vivo; cited from earlier work.
For another data set, the system named is rat osteoblastic cell. To be noted: combined with insulin-like growth factor-1; cited from earlier work.

Starred links: 1 amine or outer side, 2 acyl side, 3 side chain; linkers in the order of their positions; H or OH if unused. Positions of bridges follow the written chain, without caps; N, C: chain ends. Non-standard residues stand in square brackets, D forms with d. Residues, ends and D or L forms follow the SMILES beside them. No end group written: not given here. X1 = O=C(CC1(S[*:2])CCCCC1)[*:1]; Orn = NCCC[C@H](N)C(=O)O

In the case of `C=C1/C(=C\C=C2/CCC[C@]3(C)[C@@H]([C@H](C)CCCC(C)(C)O)CC[C@@H]23)C[C@@H](O)C[C@@H]1O` [1,25 dihydroxyvitamin D3], the bone formation entry in the data set with bone formation [1] is “stimulates bone formation”.

Take `Oc1ccc2c(c1)CC[C@H](c1ccccc1)[C@@H]2c1ccc(OCCN2CCCC2)cc1` [CP-336,156]: the uterine-stimulating effects entry in the data set with bone; uterus is reported as “without the uterine-stimulating effects associated with estradiol”.

On to `CC[C@H](C)[C@@H]1NC(=O)[C@H](Cc2ccc(O)cc2)NC(=O)[C@@H](N)CSSC[C@@H](C(=O)N2CCC[C@H]2C(=O)N[C@@H](CC(C)C)C(=O)NCC(N)=O)NC(=O)[C@H](CC(N)=O)NC(=O)[C@H](CCC(N)=O)NC1=O` [OT, oxytocin], for which the “rise in [Ca2+]i” value on OTR [2], on OTR [3] and at OTR [4] was “responded within seconds to OT treatment with a rise in [Ca^2+ ]i” in each case. Further, the “increase in PGE2 synthesis” value is recorded as 2 fold in data set [5] (15 and 30 minutes); 4-6 fold in [5] (by 1 h of OT stimulation).

With `CC[C@H](C)[C@@H]1NC(=O)[C@H](Cc2ccc(OC)cc2)NC(=O)CC2(CCCCC2)SSC[C@@H](C(=O)N2CCC[C@H]2C(=O)N[C@@H](CCCN)C(=O)N[C@@H](Cc2ccc(O)cc2)C(N)=O)NC(=O)[C@H](CC(N)=O)NC(=O)[C@H]([C@@H](C)O)NC1=O` [{^125 I]OTA] (Y(Me)ITNCP[Orn]Y-NH2; linker N-5 via X1), the Bmax is recorded as 5.7+/-0.8 fmol/10 μg DNA on OTR [6], 24.6+/-3.2 fmol/10 μg DNA on OTR [7] and 12.3+/-1.4 fmol/10 μg DNA at OTR [8]. Also, the Kd at OTR [6] (read-out: apparent Kd) was 0.132 ± 0.027 nM; on OTR [7] (read-out: apparent Kd), 0.15 ± 0.028 nM; at OTR [8] (read-out: apparent Kd), 0.175 ± 0.034 nM.

For the molecule “Growth Hormone: growth hormone injections”, the “formation and strength of cortical bone” value with cortical bone [9] is “increase the formation and strength of cortical bone”.

In the case of “IGF-1/IGF BP-3: insulin-like growth factor-1 combined with insulin-like growth factor binding protein-3”, the “effect of IGF-1 on bone formation when combined with IGF BP-3” value in the data set on bone formation [10] was “potentiated”.

On to “substance P: a neuropeptide with wide distribution in central and peripheral nervous system (RPKPQQFFGLM; ends and bridges not checked; UniProt P20366 58-68, looked up)”, for which the cell proliferation result in the data set with rat osteogenic cells was “increased cell proliferation in a dose dependent fashion”.

B1: Parathyroid Hormone: parathyroid hormone (protein, UniProt P01270 32-115, looked up)
Parathyroid hormone: SVSEIQLMHNLGKHLNSMERVEWLRKKLQDVHNFVALGAPLAPRDAGSQRPRKKEDNVLVESHEKSLGEADKADVNVLTKAKSQ
modifications: Parathyroid hormone
With B1, the “femoral length and strength in cortical bone” value in the data set with cortical bone [11] is listed as “dose dependent increase”.

B2: Osteogenic Protein-1: osteogenic protein-1 (protein, UniProt P18075 293-431, looked up)
Bone morphogenetic protein 7: STGSKQRSQNRSKTPKNQEALRMANVAENSSSDQRQACKKHELYVSFRDLGWQDWIIAPEGYAAYYCEGECAFPLNSYMNATNHAIVQTLVHFINPETVPKPCCAPTQLNAISVLYFDDSSNVILKKYRNMVVRACGCH
As to B2, the new bone formation entry in the data set with bone formation [12] was “induces new bone formation”. Besides, the “stimulation of rat osteoblastic cell differentiation and proliferation” value in the data set on rat osteoblastic cell was “synergistic with insulin-like growth factor-1”.
